Converted amounts (≈) assume the structure as drawn. Like-named read-outs stand apart in the source and are kept apart here.
Legend:
[1] = test system: Escherichia coli K-12 LA 290 R 64; experiment: Minimal inhibitory concentration, agar dilution streak method; format: cell-based; conditions: nutrient agar, 37° C, 18 hours, read-out: Minimal inhibitory concentration
Protocol: (§1) *Agar Agar dilution streak method (nutrient agar, 37° C, 18 hours)
(§2) *Agar dilution streak method (nutrient agar, 37° C, 18 hours).

[2] = test system: Pseudomonas aeruginosa No.12; experiment: as above; format: cell-based; conditions: nutrient agar, 37° C, 18 hours, read-out: Minimal inhibitory concentration
Protocol: as §1, §2

[3] = test system: Escherichia coli K-12 ML 1410 R 81; experiment: as above; format: cell-based; conditions: 18 h, read-out: Minimal inhibitory concentration
Protocol: as §1, §2

[4] = test system: Escherichia coli K-12 ML 1630; experiment: as above; format: cell-based; conditions: K12ML1630, nutrient agar, 37° C, 18 hours, read-out: Minimal inhibitory concentration
Protocol: as §1, §2

[5] = test system: Escherichia coli K-12 JR 66/W 677; experiment: as above; format: cell-based; conditions: Escherichia coli, 18 h, read-out: Minimal inhibitory concentration
Protocol: as §1, §2

[6] = test system: Staphylococcus aureus FDA 209P; experiment: as above; format: cell-based; conditions: FDA209P, nutrient agar, 37° C, 18 hours, read-out: Minimal inhibitory concentration
Protocol: as §1, §2

[7] = test system: Escherichia coli K-12 LA 290 R 55; experiment: as above; format: cell-based; conditions: 18 h, read-out: Minimal inhibitory concentration
Protocol: as §1, §2

[8] = test system: Escherichia coli K-12 ML 1410; experiment: as above; format: cell-based; conditions: K12ML1410, nutrient agar, 37° C, 18 hours, read-out: Minimal inhibitory concentration
Protocol: as §1, §2

[9] = test system: Pseudomonas aeruginosa GN 315; experiment: as above; format: cell-based; conditions: GN315, nutrient agar, 37° C, 18 hours, read-out: Minimal inhibitory concentration
Protocol: as §1, §2

[10] = test system: Escherichia coli K-12 LA 290 R 56; experiment: as above; format: cell-based; conditions: 18 h, read-out: Minimal inhibitory concentration
Protocol: as §1, §2

[11] = test system: Escherichia coli K-12; experiment: as above; format: cell-based; conditions: K12, nutrient agar, 37° C, 18 hours, read-out: Minimal inhibitory concentration
Protocol: as §1, §2

[12] = test system: Pseudomonas aeruginosa A 3; experiment: as above; format: cell-based; conditions: A3, nutrient agar, 37° C, 18 hours, read-out: Minimal inhibitory concentration
Protocol: as §1, §2

[13] = test system: Pseudomonas aeruginosa TI-13; experiment: as above; format: cell-based; conditions: TI13, nutrient agar, 37° C, 18 hours, read-out: Minimal inhibitory concentration
Protocol: as §1, §2

[14] = test system: Klebsiella pneumoniae type 22 #3038; experiment: as above; format: cell-based; conditions: Klebsiella pneumoniae; nutrient agar, 37° C, 18 hours
Protocol: as §1, §2

[15] = test system: Escherichia coli K-12 ML 1629; experiment: as above; format: cell-based; conditions: K12ML1629, nutrient agar, 37° C, 18 hours, read-out: Minimal inhibitory concentration
Protocol: as §1, §2

[16] = test system: Escherichia coli K-12 W 677; experiment: as above; format: cell-based; conditions: K12W677, nutrient agar, 37° C, 18 hours, read-out: Minimal inhibitory concentration
Protocol: as §1, §2

[17] = test system: Bacillus subtilis NRRL B-558; experiment: as above; format: cell-based; conditions: NRRLB558, nutrient agar, 37° C, 18 hours
Protocol: (§3) [α]D^22 + 38°, (c 0.85, water).
as §1, §2

[18] = test system: Sarcina lutea PCI 1001; experiment: as above; format: cell-based; conditions: Micrococcus luteus, read-out: Minimal inhibitory concentration
Protocol: as §3, §1, §2

[19] = test system: Proteus rettgeri GN 311; experiment: as above; format: cell-based; conditions: Providencia rettgeri, GN311; nutrient agar, 37° C, 18 hours
Protocol: as §3, §1, §2

[20] = test system: Pseudomonas aeruginosa 99; experiment: as above; format: cell-based; conditions: nutrient agar, 37° C, 18 hours, read-out: Minimal inhibitory concentration
Protocol: as §3, §1, §2

[21] = test system: Escherichia coli NIHJ; experiment: as above; format: cell-based; conditions: nutrient agar, 37° C, 18 hours
Protocol: as §3, §1, §2

[22] = test system: Escherichia coli K-12 R-5; experiment: as above; format: cell-based; conditions: K12R5, nutrient agar, 37° C, 18 hours
Protocol: as §3, §1, §2

[23] = test system: Escherichia coli J 5 R 11-2; experiment: as above; format: cell-based; conditions: J5R112, 18 h, read-out: Minimal inhibitory concentration
Protocol: as §3, §1, §2

[24] = test system: Salmonella typhosa T-63; experiment: as above; format: cell-based; conditions: Salmonella enterica, nutrient agar, 37° C, 18 hours
Protocol: as §3, §1, §2

[25] = test system: Escherichia coli K-12 C 600 R 135; experiment: as above; format: cell-based; conditions: 18 h, read-out: Minimal inhibitory concentration
Protocol: as §3, §1, §2

[26] = test system: Proteus rettgeri GN 466; experiment: as above; format: cell-based; conditions: Providencia rettgeri, GN466; nutrient agar, 37° C, 18 hours
Protocol: as §3, §1, §2

[27] = test system: Klebsiella pneumoniae PCI 602; experiment: as above; format: cell-based; conditions: PCI602, nutrient agar, 37° C, 18 hours
Protocol: as §3, §1, §2

[28] = test system: Mycobacterium smegmatis ATCC 607; experiment: as above; format: cell-based; conditions: Mycolicibacterium smegmatis, ATCC607, nutrient agar, 37° C
[29] = test system: phosphotransferase; conditions: phosphorylation of hydroxyl group; cited from earlier work
[30] = test system: Corynebacterium bovis 1810; experiment: Minimum inhibitory concentration, serial dilution method; format: cell-based; conditions: Corynebacterium bovis, 1810; nutrient agar, 37° C, 18 hours; read-out: Minimum inhibitory concentrations
[31] = test system: mice; experiment: Acute intravenous toxicity (LD50) in mice; conditions: in words
[32] = test system: Bacillus cereus ATCC 10702; experiment: Minimum inhibitory concentration, serial dilution method; format: cell-based; conditions: ATCC10702, nutrient agar, 37° C, 18 hours, read-out: Minimum inhibitory concentrations
[33] = test system: Staphylococcus aureus Terajima; experiment: as above; format: cell-based; conditions: nutrient agar, 37° C, 18 hours, read-out: Minimum inhibitory concentrations
[34] = test system: Bacillus subtilis PCI 219; experiment: as above; format: cell-based; conditions: PCI219, nutrient agar, 37° C, 18 hours, read-out: Minimum inhibitory concentrations
[35] = test system: Staphylococcus aureus Smith; experiment: as above; format: cell-based; conditions: nutrient agar, 37° C, 18 hours, read-out: Minimum inhibitory concentrations
[36] = test system: Salmonella enteritidis 1891; experiment: as above; format: cell-based; conditions: Salmonella enterica, nutrient agar, 37° C, 18 hours, read-out: Minimum inhibitory concentrations
[37] = test system: Proetus vulgaris OX 19; experiment: as above; format: cell-based; conditions: nutrient agar, 37° C, 18 hours; read-out: Minimum inhibitory concentrations
[38] = test system: Bacillus anthracis; experiment: microbe, parasite or virus in culture; format: cell-based; conditions: 18 h, read-out: Minimum inhibitory concentrations
[39] = test system: Shigella flexneri 4b JS 11811; experiment: Minimum inhibitory concentration, serial dilution method; format: cell-based; conditions: 4BJS11811, nutrient agar, 37° C, 18 hours, read-out: Minimum inhibitory concentrations
[40] = test system: Klebsiella pneumoniae PCI 1602; experiment: as above; format: cell-based; conditions: PCI1602, nutrient agar, 37° C, 18 hours, read-out: Minimum inhibitory concentrations
[41] = test system: Shigella dysenteriae JS 11910; experiment: as above; format: cell-based; conditions: JS11910, 18 h, read-out: Minimum inhibitory concentrations
[42] = in vivo; conditions: mouse, iv
[43] = test system: gram-positive and gram-negative bacteria; experiment: Antibacterial activity (in words); format: cell-based; conditions: various gram-positive and gram-negative bacteria, including resistant strains
Protocol: as §3

[44] = test system: Shigella sonnei JS 11746; experiment: Minimum inhibitory concentration, serial dilution method; format: cell-based; conditions: JS11746, nutrient agar, 37° C, 18 hours, read-out: Minimum inhibitory concentrations

SMILES: NC[C@@H]1CC[C@@H](N)[C@@H](O[C@H]2[C@H](O[C@@H]3O[C@H](CO)[C@@H](O)[C@H]3O)[C@@H](O)[C@H](N)C[C@@H]2N)O1 [3',4'-dideoxyribostamycin]
- MIC [1]: 3.12 µg/mL (≈ 7.38 µM)
- MIC [2]: 12.5 µg/mL (≈ 29.6 µM)
- MIC [3]: > 100 µg/mL
- MIC [4]: > 100 µg/mL
- MIC [5]: 6.25 µg/mL (≈ 14.8 µM)
- MIC [6]: 3.12 µg/mL (≈ 7.38 µM)
- MIC [7]: 3.12 µg/mL (≈ 7.38 µM)
- MIC [8]: 6.25 µg/mL (≈ 14.8 µM)
- MIC [9]: > 100 µg/mL
- MIC [10]: 1.56 µg/mL (≈ 3.69 µM)
- MIC [11]: 3.12 µg/mL (≈ 7.38 µM)
- MIC [12]: 6.25 µg/mL (≈ 14.8 µM)
- MIC [13]: 25 µg/mL (≈ 59.2 µM)
- MIC [14]: 6.25 µg/mL (≈ 14.8 µM)
- MIC [15]: > 100 µg/mL
- MIC [16]: 3.12 µg/mL (≈ 7.38 µM)
- MIC [17]: 1.56 µg/mL (≈ 3.69 µM)
- MIC ([18]; PCI1001, nutrient agar, 37° C, 18 hours): > 100 µg/mL
- MIC [19]: 6.25 µg/mL (≈ 14.8 µM)
- MIC [20]: 50 µg/mL (≈ 118 µM)
- MIC [21]: 6.25 µg/mL (≈ 14.8 µM)
- MIC [22]: 100 µg/mL (≈ 237 µM)
- MIC [23]: 100 µg/mL (≈ 237 µM)
- MIC [24]: 1.56 µg/mL (≈ 3.69 µM)
- MIC [25]: 3.12 µg/mL (≈ 7.38 µM)
- MIC [26]: 6.25 µg/mL (≈ 14.8 µM)
- MIC [27]: 3.12 µg/mL (≈ 7.38 µM)
- MIC ([28]; 48 hours, read-out: Minimal inhibitory concentration): 3.12 µg/mL (≈ 7.38 µM)
- inactivation by phosphotransferase [29]: inactivated by phosphorylating 5"-hydroxyl group

SMILES: NCC[C@H](O)C(=O)N[C@@H]1C[C@H](N)[C@@H](O[C@H]2O[C@H](CN)[C@@H](O)[C@H](O)[C@H]2N)[C@H](O)[C@H]1O[C@H]1O[C@H](CO)[C@@H](O)[C@H](N)[C@H]1O [AHB-kanamycin B, 1-N-[(S)-4-amino-2-hydroxybutyryl]-kanamycin B]
- MIC [30]: 0.39 µg/mL (≈ 0.667 µM)
- MIC [1]: 0.39 µg/mL (≈ 0.667 µM)
- MIC [2]: 6.25 µg/mL (≈ 10.7 µM)
- MIC [3]: 1.56 µg/mL (≈ 2.67 µM)
- MIC [4]: 1.56 µg/mL (≈ 2.67 µM)
- MIC [5]: 3.12 µg/mL (≈ 5.34 µM)
- MIC [6]: 0.78 µg/mL (≈ 1.33 µM)
- MIC [7]: 1.56 µg/mL (≈ 2.67 µM)
- MIC [8]: 3.13 µg/mL (≈ 5.35 µM)
- MIC [9]: 50 µg/mL (≈ 85.5 µM)
- MIC [10]: 0.39 µg/mL (≈ 0.667 µM)
- MIC [11]: 0.78 µg/mL (≈ 1.33 µM)
- MIC [12]: 6.25 µg/mL (≈ 10.7 µM)
- MIC [13]: 6.25 µg/mL (≈ 10.7 µM)
- MIC [14]: 6.25 µg/mL (≈ 10.7 µM)
- MIC [15]: 1.56 µg/mL (≈ 2.67 µM)
- MIC [16]: 0.39 µg/mL (≈ 0.667 µM)
- toxicity [31]: low toxicity to animals and men
- MIC [32]: 1.56 µg/mL (≈ 2.67 µM)
- MIC [33]: 0.2 µg/mL (≈ 0.342 µM)
- MIC [34]: < 0.2 µg/mL
- MIC [35]: < 0.2 µg/mL
- MIC [36]: 3.12 µg/mL (≈ 5.34 µM)
- MIC [37]: 1.56 µg/mL (≈ 2.67 µM)
- MIC [38]: < 0.2 µg/mL
- MIC ([18]; PCI1001, 18 h): 3.13 µg/mL (≈ 5.35 µM)
- MIC [20]: 25 µg/mL (≈ 42.8 µM)
- MIC [21]: 0.78 µg/mL (≈ 1.33 µM)
- MIC [22]: 0.78 µg/mL (≈ 1.33 µM)
- MIC [24]: 0.39 µg/mL (≈ 0.667 µM)
- MIC [39]: 3.12 µg/mL (≈ 5.34 µM)
- MIC [40]: 0.39 µg/mL (≈ 0.667 µM)
- MIC [41]: 3.12 µg/mL (≈ 5.34 µM)
- MIC ([28]; 18 hours, read-out: Minimum inhibitory concentrations): 0.78 µg/mL (≈ 1.33 µM)
- LD50 [42]: > 100 mg/kg
- antibacterial activity [43]: high antibacterial activity not only against various gram-positive and gram-negative bacteria which are sensitive to kanamycins, but also against the drug-resistant strains of Escherichia coli and Pseudomonas aeruginosa
- MIC [44]: 1.56 µg/mL (≈ 2.67 µM)

Reference: patent US4107424A, “1-N-[(S)-α-hydroxy-ω-aminoacyl] derivatives of 3',4'-dideoxykanamycin B and 3'-deoxykanamycin B antibiotics” (Zaidan Hojin Biseibutsu Kagaku Kenkyu Kai, priority 1972, dated 1978)
